Measured values published in ChEMBL document CHEMBL6087479, “Discovery of a Potent and Selective GSPT1 Molecular Glue Degrader for the Treatment of Castration-Resistant Prostate Cancer” (J Med Chem, 2025).
Calls of active or inactive are those of the source. No cut-off for these calls is given here.

Columns and labels:
LNCaP C4-2B = assay: cells; details: Homo sapiens, 96 h
Description: Antiproliferative activity against human LNCaP C4-2B cells assessed as inhibition of cell proliferation incubated for 96 hrs by CellTiter-Glo assay

[1] = target: Protein cereblon/Eukaryotic peptide chain release factor GTP-binding subunit ERF3A (Homo sapiens) (UniProt Q96SW2+P15170); assay: Protac activity at CRBN/GSPT1 in human 22Rv1 cells assessed as GSPT1 degradation at 12 to 1000 nM incubated for 6 hrs by Western blotting analysis; assay type: cell-based; details: dose 12-1000 nM
CWR22R = assay: cells; details: Homo sapiens, 22Rv1, 96 h
Description: Antiproliferative activity against human 22Rv1 cells assessed as inhibition of cell proliferation incubated for 96 hrs by CellTiter-Glo assay

LNCaP = assay: cells; details: Homo sapiens, 96 h
Description: Antiproliferative activity against human LNCaP cells assessed as inhibition of cell proliferation incubated for 96 hrs by CellTiter-Glo assay

[2] = target: Protein cereblon/Bromodomain-containing protein 4 (Homo sapiens) (UniProt O60885+Q96SW2); assay: Molecular glue degradation activity at CRBN/BRD4 in human 22Rv1 cells at 12 to 1000 nM incubated for 6 hrs by Immunoblotting analysis; assay type: cell-based; details: dose 12-1000 nM
Sequence of Protein cereblon/Bromodomain-containing protein 4 (Homo sapiens) (Q96SW2 whole entry, looked up, other chains not shown): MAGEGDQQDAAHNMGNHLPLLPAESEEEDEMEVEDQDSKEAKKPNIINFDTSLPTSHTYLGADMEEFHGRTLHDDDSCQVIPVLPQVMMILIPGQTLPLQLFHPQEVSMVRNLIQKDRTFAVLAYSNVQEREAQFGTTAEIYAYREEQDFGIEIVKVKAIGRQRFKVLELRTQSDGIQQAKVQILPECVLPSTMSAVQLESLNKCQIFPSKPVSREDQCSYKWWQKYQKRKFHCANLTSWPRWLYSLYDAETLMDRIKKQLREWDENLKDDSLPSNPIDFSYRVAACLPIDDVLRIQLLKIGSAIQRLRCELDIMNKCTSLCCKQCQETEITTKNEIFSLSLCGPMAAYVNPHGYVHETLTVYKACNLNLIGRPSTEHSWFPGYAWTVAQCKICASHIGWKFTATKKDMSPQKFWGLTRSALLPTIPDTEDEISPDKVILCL

Sequence of Protein cereblon/Eukaryotic peptide chain release factor GTP-binding subunit ERF3A (Homo sapiens) (P15170 whole entry, looked up): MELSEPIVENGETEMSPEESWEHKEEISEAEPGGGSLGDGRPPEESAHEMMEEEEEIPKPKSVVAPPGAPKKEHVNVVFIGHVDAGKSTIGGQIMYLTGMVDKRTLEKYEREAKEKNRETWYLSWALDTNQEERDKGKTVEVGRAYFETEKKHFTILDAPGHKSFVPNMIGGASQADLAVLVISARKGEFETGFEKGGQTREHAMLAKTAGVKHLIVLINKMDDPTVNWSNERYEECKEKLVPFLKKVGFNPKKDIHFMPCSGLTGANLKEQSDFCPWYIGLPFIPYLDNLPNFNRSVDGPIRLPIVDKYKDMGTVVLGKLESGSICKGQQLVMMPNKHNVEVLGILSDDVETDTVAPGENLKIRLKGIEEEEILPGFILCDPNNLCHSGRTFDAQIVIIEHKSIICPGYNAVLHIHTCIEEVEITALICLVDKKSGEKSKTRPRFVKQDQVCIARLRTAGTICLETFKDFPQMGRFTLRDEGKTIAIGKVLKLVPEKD
Sequence of Protein cereblon/Eukaryotic peptide chain release factor GTP-binding subunit ERF3A (Homo sapiens) (Q96SW2 whole entry, looked up): as the sequence (Q96SW2 whole entry, looked up, other chains not shown) above

| SMILES | IC50 (LNCaP C4-2B) | IC50 (CWR22R) | IC50 (LNCaP) | Activity [2] | Activity [1] |
| --- | --- | --- | --- | --- | --- |
| COc1ccc(Br)cc1S(=O)(=O)Nc1cc2c(C)noc2cc1OCC(=O)NCCCCCCNc1cccc2c1C(=O)N(C1CCC(=O)NC1=O)C2=O (stereo unspecified) | > 10 µM | 0.909 µM | 2.48 µM | inactive | Active; Moderate Effect Of Degradation Observed |
| COc1ccc(Br)cc1S(=O)(=O)Nc1cc2c(C)noc2cc1OCC(=O)NCCCNC(=O)COc1cccc2c1C(=O)N(C1CCC(=O)NC1=O)C2=O (stereo unspecified) | > 10 µM | > 10 µM | > 10 µM | – | – |
| COc1ccc(Br)cc1S(=O)(=O)Nc1cc2c(C)noc2cc1OCC(=O)NCCNc1cccc2c1C(=O)N(C1CCC(=O)NC1=O)C2=O (stereo unspecified) | > 10 µM | > 10 µM | > 10 µM | – | – |
| Nc1cccc2c1C(=O)N(C1CCC(=O)NC1=O)C2=O (stereo unspecified) [POMALIDOMIDE] | > 10 µM | > 10 µM | > 10 µM | – | – |
| COc1ccc(Br)cc1S(=O)(=O)Nc1cc2c(C)noc2cc1OCC(=O)NCCCCNc1cccc2c1C(=O)N(C1CCC(=O)NC1=O)C2=O (stereo unspecified) | 1.43 µM | 0.062 µM | 0.112 µM | inactive | Active; Moderate Effect Of Degradation Observed |
| COc1cc2onc(C)c2cc1NS(=O)(=O)c1cc(Br)ccc1OC | 1.8 µM | 1.61 µM | 2.52 µM | – | – |

Further lines, with some results ahead:

| IC50 (LNCaP C4-2B) | IC50 (CWR22R) | IC50 (LNCaP) | Activity [2] | SMILES | Activity [1] |
| --- | --- | --- | --- | --- | --- |
| > 10 µM | > 10 µM | > 10 µM | – | COc1ccc(Br)cc1S(=O)(=O)Nc1cc2c(C)noc2cc1OCC(=O)NCCCCNc1ccc2c(c1)C(=O)N(C1CCC(=O)NC1=O)C2=O (stereo unspecified) | – |
| > 10 µM | > 10 µM | > 10 µM | – | COc1ccc(Br)cc1S(=O)(=O)Nc1cc2c(C)noc2cc1OCC(=O)NCCNc1ccc2c(c1)C(=O)N(C1CCC(=O)NC1=O)C2=O (stereo unspecified) | – |
| > 10 µM | > 10 µM | > 10 µM | – | COc1ccc(Br)cc1S(=O)(=O)Nc1cc2c(C)noc2cc1OCC(=O)NCCCCCNc1ccc2c(c1)C(=O)N(C1CCC(=O)NC1=O)C2=O (stereo unspecified) | – |
